Test results taken from PubChem BioAssay (NCI).
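Five compound concentrations were applied to cells in 96-well plates for 48 hours; endpoints were derived by simple linear interpolation of the resulting dose-response curve. GI50 marks 50% less growth. The concentration for full growth arrest is given as TGI.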

What was measured:
Assay in all cases: NCI-60 cell line screen, 48 h
786-0 renal = system: 786-0 renal
A498 renal = system: A498 renal
A549 NSCLC = system: A549 NSCLC
ACHN renal = system: ACHN renal
BT-549 breast = system: BT-549 breast
CAKI-1 renal = system: CAKI-1 renal
CCRF-CEM leukemia = system: CCRF-CEM leukemia
COLO 205 colon = system: COLO 205 colon
DU-145 prostate = system: DU-145 prostate
EKVX NSCLC = system: EKVX NSCLC
HCC-2998 colon = system: HCC-2998 colon
HCT-116 colon = system: HCT-116 colon
HCT-15 colon = system: HCT-15 colon
HL-60(TB) leukemia = system: HL-60(TB) leukemia
HOP-62 NSCLC = system: HOP-62 NSCLC
HOP-92 NSCLC = system: HOP-92 NSCLC
HS 578T breast = system: HS 578T breast
HT29 colon = system: HT29 colon
IGROV1 ovarian = system: IGROV1 ovarian
K-562 leukemia = system: K-562 leukemia
KM12 colon = system: KM12 colon
LOX IMVI melanoma = system: LOX IMVI melanoma
M14 melanoma = system: M14 melanoma
MALME-3M melanoma = system: MALME-3M melanoma
MCF7 breast = system: MCF7 breast
MDA-MB-231 breast = system: MDA-MB-231 breast
MDA-MB-435 = system: MDA-MB-435
MOLT-4 leukemia = system: MOLT-4 leukemia
NCI-H226 lung = system: NCI-H226 lung
NCI-H23 lung = system: NCI-H23 lung
NCI-H460 lung = system: NCI-H460 lung
NCI-H522 lung = system: NCI-H522 lung
NCI/ADR-RES ovarian = system: NCI/ADR-RES ovarian
OVCAR-3 ovarian = system: OVCAR-3 ovarian
OVCAR-4 ovarian = system: OVCAR-4 ovarian
OVCAR-5 ovarian = system: OVCAR-5 ovarian
OVCAR-8 ovarian = system: OVCAR-8 ovarian
PC-3 prostate = system: PC-3 prostate
RPMI-8226 leukemia = system: RPMI-8226 leukemia
RXF 393 renal = system: RXF 393 renal
SF-268 CNS = system: SF-268 CNS
SF-295 CNS = system: SF-295 CNS
SF-539 CNS = system: SF-539 CNS
SK-MEL-2 melanoma = system: SK-MEL-2 melanoma
SK-MEL-28 melanoma = system: SK-MEL-28 melanoma
SK-MEL-5 melanoma = system: SK-MEL-5 melanoma
SK-OV-3 ovarian = system: SK-OV-3 ovarian
SN12C renal = system: SN12C renal
SNB-19 CNS = system: SNB-19 CNS
SNB-75 CNS = system: SNB-75 CNS
SR leukemia = system: SR leukemia
SW-620 colon = system: SW-620 colon
T-47D breast = system: T-47D breast
TK-10 renal = system: TK-10 renal
U251 CNS = system: U251 CNS
UACC-257 melanoma = system: UACC-257 melanoma
UACC-62 melanoma = system: UACC-62 melanoma
UO-31 renal = system: UO-31 renal

NC(=O)C1(N2CCCCC2)CCN(CCCC(=O)c2ccc(F)cc2)CC1
GI50 (786-0 renal): 4.59 µM
TGI (786-0 renal): 43.2 µM
GI50 (A498 renal): 2.72 µM
TGI (A498 renal): 11.4 µM
GI50 (A549 NSCLC): 10.4 µM
TGI (A549 NSCLC): > 100 µM
GI50 (ACHN renal): 12.2 µM
TGI (ACHN renal): > 100 µM
GI50 (BT-549 breast): 0.0443 µM
TGI (BT-549 breast): 14.1 µM
GI50 (CAKI-1 renal): 26.6 µM
TGI (CAKI-1 renal): > 100 µM
GI50 (CCRF-CEM leukemia): 0.121 µM
GI50 (COLO 205 colon): 0.715 µM
TGI (COLO 205 colon): 6.89 µM
GI50 (DU-145 prostate): 2.83 µM
TGI (DU-145 prostate): > 25.6 µM
GI50 (EKVX NSCLC): 6.01 µM
TGI (EKVX NSCLC): > 100 µM
GI50 (HCC-2998 colon): 1.78 µM
TGI (HCC-2998 colon): 6.19 µM
GI50 (HCT-116 colon): 0.777 µM
TGI (HCT-116 colon): > 100 µM
GI50 (HCT-15 colon): 24.7 µM
TGI (HCT-15 colon): > 100 µM
GI50 (HL-60(TB) leukemia): 0.801 µM
TGI (HL-60(TB) leukemia): 4.19 µM
GI50 (HOP-62 NSCLC): 3.41 µM
TGI (HOP-62 NSCLC): > 100 µM
GI50 (HOP-92 NSCLC): 0.17 µM
TGI (HOP-92 NSCLC): 51.4 µM
GI50 (HS 578T breast): 2.37 µM
TGI (HS 578T breast): > 100 µM
GI50 (HT29 colon): 0.818 µM
TGI (HT29 colon): > 20 µM
GI50 (IGROV1 ovarian): 7.28 µM
TGI (IGROV1 ovarian): > 100 µM
GI50 (K-562 leukemia): 0.28 µM
TGI (K-562 leukemia): > 100 µM
GI50 (KM12 colon): 1.39 µM
TGI (KM12 colon): 67.6 µM
GI50 (LOX IMVI melanoma): 0.254 µM
TGI (LOX IMVI melanoma): > 100 µM
GI50 (M14 melanoma): 2.28 µM
TGI (M14 melanoma): 7.72 µM
GI50 (MALME-3M melanoma): 0.264 µM
TGI (MALME-3M melanoma): > 100 µM
GI50 (MCF7 breast): 0.108 µM
TGI (MCF7 breast): > 100 µM
GI50 (MDA-MB-231 breast): 3.56 µM
TGI (MDA-MB-231 breast): > 71.8 µM
GI50 (MDA-MB-435): 0.07 µM
TGI (MDA-MB-435): 0.396 µM
GI50 (MOLT-4 leukemia): 1.16 µM
TGI (MOLT-4 leukemia): > 81.6 µM
GI50 (NCI-H226 lung): 2.34 µM
TGI (NCI-H226 lung): 8.81 µM
GI50 (NCI-H23 lung): 1.08 µM
TGI (NCI-H23 lung): > 20.1 µM
GI50 (NCI-H460 lung): 2.7 µM
TGI (NCI-H460 lung): > 100 µM
GI50 (NCI-H522 lung): 0.0965 µM
GI50 (NCI/ADR-RES ovarian): 29 µM
TGI (NCI/ADR-RES ovarian): > 100 µM
GI50 (OVCAR-3 ovarian): 0.117 µM
TGI (OVCAR-3 ovarian): 1.58 µM
GI50 (OVCAR-4 ovarian): 8.72 µM
TGI (OVCAR-4 ovarian): > 100 µM
GI50 (OVCAR-5 ovarian): 6.96 µM
TGI (OVCAR-5 ovarian): > 100 µM
GI50 (OVCAR-8 ovarian): 4.91 µM
TGI (OVCAR-8 ovarian): > 100 µM
GI50 (PC-3 prostate): 2.33 µM
TGI (PC-3 prostate): > 100 µM
GI50 (RPMI-8226 leukemia): 0.208 µM
TGI (RPMI-8226 leukemia): > 100 µM
GI50 (RXF 393 renal): 2.32 µM
TGI (RXF 393 renal): 7.38 µM
GI50 (SF-268 CNS): 2.6 µM
TGI (SF-268 CNS): > 70.9 µM
GI50 (SF-295 CNS): 2.7 µM
TGI (SF-295 CNS): > 100 µM
GI50 (SF-539 CNS): 1.42 µM
TGI (SF-539 CNS): 13.6 µM
GI50 (SK-MEL-2 melanoma): 0.0925 µM
TGI (SK-MEL-2 melanoma): > 100 µM
GI50 (SK-MEL-28 melanoma): 1.08 µM
TGI (SK-MEL-28 melanoma): > 100 µM
GI50 (SK-MEL-5 melanoma): 0.158 µM
TGI (SK-MEL-5 melanoma): 12.6 µM
GI50 (SK-OV-3 ovarian): 3.26 µM
TGI (SK-OV-3 ovarian): 35.3 µM
GI50 (SN12C renal): 5.24 µM
TGI (SN12C renal): > 100 µM
GI50 (SNB-19 CNS): 2.86 µM
TGI (SNB-19 CNS): > 100 µM
GI50 (SNB-75 CNS): 0.147 µM
TGI (SNB-75 CNS): > 100 µM
GI50 (SR leukemia): 0.0761 µM
GI50 (SW-620 colon): 0.173 µM
TGI (SW-620 colon): > 100 µM
GI50 (T-47D breast): > 100 µM
TGI (T-47D breast): > 100 µM
GI50 (TK-10 renal): > 26 µM
TGI (TK-10 renal): > 100 µM
GI50 (U251 CNS): 0.263 µM
TGI (U251 CNS): > 100 µM
TGI (UACC-257 melanoma): > 100 µM
GI50 (UACC-62 melanoma): 0.219 µM
TGI (UACC-62 melanoma): > 100 µM
GI50 (UO-31 renal): 17.2 µM
TGI (UO-31 renal): > 100 µM
